Measurements: article PMC6597546, “Identification of a potent benzoxaborole drug candidate for treating cryptosporidiosis” (Nature Communications, 2019)
Entries after “also recorded” stand apart in the source; their conditions may differ.

Experiments:
[1] = test system: 109 off-target enzymes and receptors; experiment: Lead Profiling and Adverse Reaction Enzyme off-target panel; type: binding; settings: 10 µM
Description: (§1) In vitro safety profiling studies were conducted by Ricerca Biosciences (Taipei, Taiwan) and WuXi AppTec (Suzhou, China). Ricerca performed a Lead Profiling and Adverse Reaction Enzyme panel of 109 off-target enzymes and receptors. This included the hERG K+ ion channel, which is associated with cardiac tachyarrhythmias, and used a radioligand binding competition format with 10 µM test compound for 1 h at 25 °C. For the enzyme and receptor panel, competitive inhibition at 10 µM of test compound was the most common assay format. The AMES bacterial reverse mutation assay detects point mutations in Escherichia coli and Salmonella typhimurium as an indicator of mutagenic activity. Bacterial strains were obtained from Molecular Toxicology (Boone, NC).

[2] = Single-dose oral and intravenous murine PK; type: in vivo, female CD-1 mice; settings: female, mouse, plasma, CD-1 mice
Description: (§2) Single-dose oral and intravenous murine PK studies were performed by WuXi Biologics (Wuxi, China) in female CD-1 mice in compliance with animal care guidelines. […] Single-dose oral calf PK studies were performed at the University of Vermont in compliance with animal care guidelines and with approval from the University of Vermont Institutional Animal Care and Use Committee. […] Doses were squirted into the calves’ mouths during interruptions in bottle feeding. Fecal samples were collected at the indicated times by manual anal stimulation. […] Fecal AN7973 was measured by extracting AN7973 from homogenized feces with acetonitrile. For this, feces were added to 4 volumes of acetonitrile (4 mL per g), mixed by vortexing for 5 min at room temperature, and then centrifuged. […] The fecal extraction method was validated with a standard curve of compound added to control feces. […] Non-compartmental analysis of the mean concentration-time profiles was performed using Phoenix version 6.4 (Pharsight Corporation, Mountain View, CA, USA). Concentrations below the limit of quantitation were assigned values of zero for generation of mean concentrations. Predictions of multidose exposures were generated by non-parametric superposition of the single-dose PK data using Phoenix version 6.4 (Supplementary Fig. 5).

[3] = 7-day repeated oral dose toxicity study in rats
Description: A repeated oral dose toxicity and separate toxicokinetics (TK) study were performed in male rats by WuXi AppTec Company (Suzhou, China). […] Animals were individually housed in solid bottom plastic cages with bedding in compliance with the US Animal Welfare Act. All rat studies were performed using ∼8-week-old Sprague-Dawley male rats (Rattus novegicus)/Crl: CD[SD] […] Cage side clinical observations of condition and behavior (i.e., gait, stool, activity level, atonia, coat soiling and grooming, skin turgor, posture, priapism, piloerection) were performed twice daily during the dosing phase, and weights and food consumption were measured daily. At termination, all study animals were evaluated for erythrocyte count, absolute reticulocyte count, alkaline phosphatase, and triglycerides by fasting the animals overnight and obtaining blood from the abdominal aorta at necropsy as a terminal procedure under deep anesthesia (pentobarbital). A complete necropsy and histopathologic studies (hematoxylin and eosin staining) of large intestine, small intestine, stomach, and any gross lesions were performed on all animals on day 7 of dosing. […] Serum was collected from vehicle-control animals at 1 h and 4 h after dosing on days 1 and 7. […] Following completion of blood collection, TK animals were euthanized by CO2 inhalation and exsanguination without necropsy.

hERG K+ ion channel = molecular target: T1, hERG K+ ion channel (Homo sapiens, UniProt Q12809); experiment: hERG radioligand binding competition; settings: 10 µM test compound, 1 h at 25 °C
T1 construct: Ricerca Biosciences (Taipei, Taiwan), contract laboratory
Description: as §1

[4] = test system: C. parvum invasion of HCT-8 host cells; experiment: HCT-8 host cell invasion assay; type: cell-based, Cryptosporidium parvum; settings: HCT-8 host cells, 3 h
Description: The invasion assay, DNA replication assay, asexual to sexual stage conversion, and time-kill curve assays were performed using fluorescence microscopy to enumerate parasites and host cell nuclei. Staining protocols are individually described for each assay. Unless noted otherwise, the details of image acquisition were as follows. An inverted Nikon Eclipse Ti2000 microscope with an automated stage and Perfect Focus was used with NIS-Elements Advanced Research software (Nikon, USA, version 4.30.01) to image the wells. The microscope was programmed to focus on the center of each well and then take a 3 × 3 composite image per well using a 20 × (0.45 NA) objective. Images were exported as .tiff files and parasites and host nuclei counted using a custom macro on ImageJ (National Institutes of Health, version 1.52a). Data were analyzed using Microsoft Excel and GraphPad Prism (version 6.01).
Host cell invasion was assayed by allowing C. parvum to invade host cell monolayers in the presence of compound, and enumerating parasites and host cells after just 3 h (i.e., before completion of a parasite division cycle)[38]. HCT-8 cells were grown in RPMI media supplemented with 120 U per mL penicillin and 120 μg per mL streptomycin and 10% heat inactivated fetal bovine serum (complete media) and C. parvum Iowa isolate oocysts from Bunch Grass Farms (Deary, ID) were used for infection. When cells reached a confluence of >99%, media was removed and replaced with 25 µL per well of fresh media containing twice the indicated concentrations of compounds and incubated for 1 h at 37 °C in a humidified CO2 incubator. In the meantime, oocysts were induced for excystation by first treating with 10 mM hydrochloric acid (diluted with distilled water) for 10 min at 37 °C followed by 2 mM sodium taurocholate (in phosphate buffered saline (PBS) with calcium and magnesium) for 10 min at 16 °C. Before and after each treatment, oocysts were spun down at 14,000 × g for 4.5 min and supernatant was removed. […]

human lymphocytes = experiment: In vitro micronucleus genotoxicity assay; type: cell-based; settings: with and without S9, 3 and 28 h, 0.25 to 260 µg per mL
Single-dose oral calf PK = type: in vivo, Holstein bull calves; settings: calves, oral 5 mg per kg
Description: as §2

CYP2D6 = CYP2D6 (Homo sapiens, UniProt P10635); experiment: CYP450 inhibition 2D6; type: in vitro ADME
[5] = Cytotoxicity murine L929 (3d); type: cell-based; settings: mouse, L929 cells, 25 µM highest concentration tested
[6] = 2 mg/kg, intravenous 2 mg per kg
[7] = male, Holstein, bovine, plasma, 5 mg/kg

T1 sequence (Q12809 whole entry): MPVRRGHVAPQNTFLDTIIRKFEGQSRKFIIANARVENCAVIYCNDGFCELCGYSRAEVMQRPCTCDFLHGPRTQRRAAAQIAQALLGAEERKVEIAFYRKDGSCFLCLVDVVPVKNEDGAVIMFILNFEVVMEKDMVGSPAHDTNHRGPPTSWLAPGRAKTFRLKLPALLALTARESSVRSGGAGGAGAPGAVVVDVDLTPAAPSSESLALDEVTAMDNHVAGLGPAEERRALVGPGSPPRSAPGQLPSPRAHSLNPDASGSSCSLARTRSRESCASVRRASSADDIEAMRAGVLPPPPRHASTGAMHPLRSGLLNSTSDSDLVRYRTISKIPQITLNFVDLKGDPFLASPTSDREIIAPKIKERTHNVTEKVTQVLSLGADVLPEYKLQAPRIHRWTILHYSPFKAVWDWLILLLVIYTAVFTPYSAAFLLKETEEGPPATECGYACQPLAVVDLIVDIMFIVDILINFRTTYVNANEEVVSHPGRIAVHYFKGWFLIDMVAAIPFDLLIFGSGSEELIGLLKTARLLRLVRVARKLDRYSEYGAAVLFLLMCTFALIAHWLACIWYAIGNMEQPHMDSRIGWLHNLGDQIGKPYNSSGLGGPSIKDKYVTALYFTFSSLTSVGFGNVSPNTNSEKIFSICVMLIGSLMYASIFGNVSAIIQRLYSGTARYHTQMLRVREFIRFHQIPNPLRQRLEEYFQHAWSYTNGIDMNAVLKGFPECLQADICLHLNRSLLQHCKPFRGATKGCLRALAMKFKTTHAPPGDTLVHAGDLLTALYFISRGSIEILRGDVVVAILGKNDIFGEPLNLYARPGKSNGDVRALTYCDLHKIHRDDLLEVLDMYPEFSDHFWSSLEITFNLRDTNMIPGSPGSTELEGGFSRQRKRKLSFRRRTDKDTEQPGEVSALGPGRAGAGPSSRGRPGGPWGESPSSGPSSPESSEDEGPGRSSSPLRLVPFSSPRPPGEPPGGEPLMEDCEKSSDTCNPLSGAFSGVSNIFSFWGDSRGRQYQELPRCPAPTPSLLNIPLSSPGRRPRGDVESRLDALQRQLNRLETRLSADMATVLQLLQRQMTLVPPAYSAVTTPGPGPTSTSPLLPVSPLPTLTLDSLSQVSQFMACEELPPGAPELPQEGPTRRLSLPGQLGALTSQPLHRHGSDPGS
CYP2D6, sequence (P10635 whole entry): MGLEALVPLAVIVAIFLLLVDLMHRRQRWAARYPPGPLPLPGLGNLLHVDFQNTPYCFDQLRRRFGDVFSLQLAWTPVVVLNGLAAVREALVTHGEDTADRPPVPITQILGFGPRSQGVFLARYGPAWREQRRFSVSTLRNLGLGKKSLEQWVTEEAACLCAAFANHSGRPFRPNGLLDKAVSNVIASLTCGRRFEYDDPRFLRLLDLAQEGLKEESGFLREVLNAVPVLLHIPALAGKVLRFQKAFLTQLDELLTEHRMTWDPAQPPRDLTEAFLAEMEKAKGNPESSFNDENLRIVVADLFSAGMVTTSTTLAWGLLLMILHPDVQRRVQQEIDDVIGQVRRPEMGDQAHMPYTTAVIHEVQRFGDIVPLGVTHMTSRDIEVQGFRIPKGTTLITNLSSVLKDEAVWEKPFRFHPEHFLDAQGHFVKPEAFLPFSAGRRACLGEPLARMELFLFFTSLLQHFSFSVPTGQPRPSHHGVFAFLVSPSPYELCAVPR

## CC1(C)OB(O)c2cc(NC(=O)c3ccc(-n4cccn4)cc3Cl)ccc21 [AN7973]
[1]
  In vitro Receptor Panel (109 targets): Negative; also recorded: no significant findings
[2]; [6]
  AUC(0-inf): 49700 ng·h/mL
  Cmax: 6820 ng/mL
  clearance: 0.667 mL/min/kg
  half-life: 6 h
[2]; 10 mg/kg, oral 10 mg per kg
  AUC(0-inf): 92700 ng·h/mL
  Cmax: 8630 ng/mL
  half-life: 6.6 h
[2]; 10 mg/kg, oral 10 mg per kg, read-out: bioavailability F
  bioavailability: 37%
[3]; 80 mg per kg per day oral gavage, seven days, male rats
  tolerability in rats: well tolerated
[3]; 80 mg·kg-1·d-1, mean ± SD
  Alkaline phosphatase on day 8: 188 ± 17 U·L-1
  Average weight on day 1: 260.24 g
  Average weight on day 7: 305.36 ± 8.8 g
  Reticulocyte count on day 8: 563.2 ± 66.6 ×10^9 per L
  Total food consumption (days 1-7): 156.1 ± 10.1 g
  Triglycerides on day 8: 0.39 ± 0.16 mmol/L
[3]; 80 mg·kg-1·d-1, n=5
  Mortality (unscheduled deaths): 0
hERG K+ ion channel
  hERG inhibition: negative
[4]
  activity in C. parvum invasion assay: no activity
Human lymphocytes
  In vitro micronucleus: negative
Single-dose oral calf PK
  t1/2: 31.1 h
Single-dose oral calf PK; [7]
  AUC(0-inf): 190000 ng·h/mL
  Cmax: 3570 ng/mL
Single-dose oral calf PK; male, Holstein, bovine, plasma, po, 5 mg/kg
  half-life: 31 h
CYP2D6
  inhibition at 10 µM: 0%
[5]
  IC50 at 3 d: > 25 µM
